The record followed here is ChEMBL document CHEMBL1201862, “PubChem BioAssay data set” (2004).

Some test systems named below: 786-0; A498; BT-549; DU-145; EKVX; HCT-15; HOP-62; M14; Malme-3M; NCI/ADR-RES; OVCAR-3; OVCAR-4; OVCAR-5; PC-3; RXF 393; SF-268; SF-295; SF-539; SK-OV-3; T47D.
What all share (experiment): NCI anticancer screen, dose series, 48 h

Structures are written as SMILES.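 Step 1: Grow cells in 96-well plates. Step 2: Expose to compound for 48 hours at 5 concentrations. Step 3: Interpolate endpoints linearly; if unreached, use highest concentration. Here, GI50 denotes the concentration required for 50% inhibition of growth.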 The source made the active and inactive calls. No stated cut-off is given here; in the data, active = GI50 up to about 1.1 µM and inactive = higher.

With `COc1ccc(C)c2c1N[C@](C)([C@]1(C)Nc3c(OC)ccc(C)c3C1=O)C2=O`, the GI50 with 786-0 is > 100 µM (inactive); in the assay on A498 it was > 100 µM (inactive); with BT-549, > 100 µM (inactive); with DU-145 it was > 100 µM (inactive); with EKVX it was > 100 µM (inactive); in the assay on HCT-15, > 100 µM. Also, the GI50 in the assay with HOP-62 was 94.4 µM (inactive); in the assay on M14 it was > 100 µM (inactive); in the assay with Malme-3M, > 100 µM (inactive); in the assay on NCI/ADR-RES, > 100 µM (inactive); with OVCAR-3 it was > 100 µM (inactive); with OVCAR-4, > 100 µM (inactive). Further, the GI50 in the assay with OVCAR-5 was > 100 µM (inactive); in the assay on PC-3 it was > 100 µM (inactive); in the assay with RXF 393, > 100 µM (inactive); with SF-268, 51.6 µM (inactive); with SF-295 it was 41.4 µM (inactive); in the assay with SF-539, > 100 µM (inactive). Besides, the GI50 with SK-OV-3 and with T47D was > 100 µM (inactive) throughout.
Regarding `CCOC(=O)c1cc(Br)c(-c2onc(C)c2Br)n1C`, the GI50 with 786-0 was 25.9 µM (inactive); with A498, 45.2 µM (inactive); with BT-549 it was 41.4 µM (inactive); in the assay with DU-145 it was 93.5 µM (inactive); in the assay with EKVX, 6.08 µM (inactive); in the assay on HCT-15, 37.6 µM. Further, the GI50 with HOP-62 is 35.6 µM (inactive); with M14 it was 40.6 µM (inactive); with Malme-3M, 52.8 µM (inactive); with NCI/ADR-RES, 37.2 µM (inactive); in the assay with OVCAR-3, 31.6 µM (inactive); in the assay with OVCAR-4, 38.5 µM (inactive). In addition, the GI50 with OVCAR-5 is 19.4 µM (inactive); in the assay on PC-3 it was 35.3 µM (inactive); in the assay on RXF 393 it was 10.2 µM (inactive); in the assay on SF-268, 75 µM (inactive); in the assay on SF-295 it was 23.9 µM (inactive); in the assay on SF-539 it was > 100 µM (inactive). Also, the GI50 in the assay on SK-OV-3 is 21.9 µM (inactive); with T47D, 15.6 µM (inactive).
